In one test the test system is salivary cortisol. Put plainly: Stress test (timed mathematical and word test), salivary cortisol of panelists exposed to fragrance. To be noted: for effect on salivary cortisol levels as compared to the control (in words): exposed panelists, stress test; for % Change in Cortisol (i.e., before versus after stress): panelists exposed during stress test, saliva before and immediately after stress test, DPG solvent, DPG control 10.8%. The class given is in vivo, human. As for the experimental part:
(§1) Stress was induced in each panelist using a timed mathematical and word test, which was administered to panelists in a small group competition setting to induce stress in each of the panelists. At set time intervals during the test, each panelist was exposed to either a single fragrance compound or to a DPG control.
(§2) Saliva was collected for each panelist before and immediately after the stress test. Saliva samples were assayed for salivary alpha-amylase activity and salivary cortisol levels using a commercially available assay kit (e.g., Salimetrics®).
Table 1-B summarizes the percent change (i.e., before stress versus after stress) in the salivary cortisol levels of panelists exposed to fragrance compounds of the present disclosure during the stress test. In addition, the table illustrates the statistical significance of the change in salivary cortisol levels (i.e., p-value or probability value, P) of each of the fragrance compounds as compared to DPG, representing the change in the control (i.e., just DPG without a fragrance compound before stress and after stress).
(§3) Saliva was collected before and immediately after the stress test. Saliva samples were assayed for salivary alpha-amylase activity and salivary cortisol levels using a commercially available assay kit (e.g., Salimetrics®).
Table 5-B summarizes the percent change (i.e., before stress versus after stress) in the salivary cortisol levels of panelists exposed to fragrance compounds of the present disclosure during the stress test. In addition, the table illustrates the statistical significance of the change in salivary cortisol levels (i.e., p-value or probability value, P) of each of the fragrance compounds as compared to DPG, representing the change in the control (i.e., just DPG without a fragrance compound before stress and after stress).

The next test relates to salivary alpha-amylase. Kind of test: Stress test (timed mathematical and word test), salivary alpha-amylase of panelists exposed to fragrance. The class given is in vivo, human. Particulars: for effect on salivary alpha-amylase levels as compared to the DPG control (in words): exposed panelists, stress test; for % Change in Alpha-amylase (i.e., before versus after stress): panelists exposed during stress test, saliva before and immediately after stress test, DPG solvent, DPG control 51.9%. As for the experimental part: as §1, §2
Table 1-A summarizes the percent change (i.e., before stress versus after stress) in the salivary alpha-amylase levels of panelists exposed to fragrance compounds of the present disclosure during the stress test. In addition, the table illustrates the statistical significance of the change in alpha-amylase levels (i.e., p-value or probability value, P) of each of the fragrance compounds as compared to DPG, representing the change in the control (i.e., just DPG without a fragrance compound before stress and after stress).
as §3
Table 5-A summarizes the percent change (i.e., before stress versus after stress) in the salivary alpha-amylase levels of panelists exposed to fragrance compounds of the present disclosure during the stress test. In addition, the table illustrates the statistical significance of the change in alpha-amylase levels (i.e., p-value or probability value, P) of each of the fragrance compounds as compared to DPG, representing the change in the control (i.e., just DPG without a fragrance compound before stress and after stress).

Turning to `CC1=CCC(C(C)CC2CCCC2=O)CC1` (centres unmarked) [2-(2-(4-methyl-3-cyclohexen-1-yl)propyl)cyclopentanone], in the test with salivary cortisol, the “effect on salivary cortisol levels as compared to the control (in words)” value was “the levels of salivary cortisol were limited” and the “% Change in Cortisol (i.e., before versus after stress)” value (from here on “% Change in Cortisol”) is recorded as −10.6%. In the test with salivary alpha-amylase, the “effect on salivary alpha-amylase levels as compared to the DPG control (in words)” value (shortened to “effect … compared to the DPG control (in words)”) is recorded as “limited the increase in salivary alpha-amylase levels” and the “% Change in Alpha-amylase (i.e., before versus after stress)” value (“% Change in Alpha-amylase” for short) came out at 33.5%.
As to `C=C(C)[C@H]1CC=C(C)CC1` [Limonene, limonene], the “% Change in Cortisol” value with salivary cortisol worked out at 21.05%. Also, in the test on salivary alpha-amylase, the “effect … compared to the DPG control (in words)” value was “limited the increase in salivary alpha-amylase levels” and the “% Change in Alpha-amylase” value is listed as −15.9%.
Take `CC(=O)OC(C)(C)C1CC=C(C)CC1` (centres unmarked) [Terpinyl Acetate, terpinyl acetate]: in the test on salivary cortisol, the “effect on salivary cortisol levels as compared to the control (in words)” value was “the levels of salivary cortisol were limited” and the “% Change in Cortisol” value is −9.1%. In the test with salivary alpha-amylase, the “effect … compared to the DPG control (in words)” value is reported as “limited the increase in salivary alpha-amylase levels” and the “% Change in Alpha-amylase” value is on record as 16.5%.

The values are drawn from patent US20190322960A1, “FRAGRANCE COMPOSITIONS AND METHODS OF USE THEREOF” (TAKASAGO INTERNATIONAL CORPORATION, priority 2016, published 2019).
